According to ChEMBL document CHEMBL4371047, “Effect of α-Methoxy Substitution on the Anti-HIV Activity of Dihydropyrimidin-4(3 H)-ones” (J Med Chem, 2019):

Assays:
[1] = tested on: Human immunodeficiency virus type 1 reverse transcriptase (Human immunodeficiency virus 1), Q72547 [L100I]
[2] = tested on: Human immunodeficiency virus 1; assay: Resistance index, ratio of EC50 for HIV-1 harboring reverse transcriptase Y181C mutant to EC50 for wild type HIV-1 NL4-3; type: functional
[3] = tested on: Human immunodeficiency virus 1; assay: Potency index, ratio of EFV EC50 to compound EC50 for HIV-1 IRLL98 harboring reverse transcriptase M41L, D67N, Y181C, M184V, R211K, and T215Y mutants infected in human MT4 cells; type: functional
[4] = tested on: Human immunodeficiency virus 1; assay: Resistance index, ratio of ID50 for recombinant HIV-1 His-tagged reverse transcriptase p66/p51 L100I mutant to ID50 for recombinant wild type HIV-1 reverse transcriptase His-tagged p66/p51
[5] = tested on: Human immunodeficiency virus 1; assay: Antiviral activity against HIV-1 harboring reverse transcriptase K103N/Y181C double mutant infected in human MT4 cells assessed as inhibition of virus-induced cytopathic effect after 5 days by MTT assay; type: functional, organism-based; conditions: Human immunodeficiency virus 1, MT4, 120 h
[6] = tested on: Human immunodeficiency virus 1; assay: Antiviral activity against HIV-1 harboring reverse transcriptase Y188L mutant infected in human MT4 cells assessed as inhibition of virus-induced cytopathic effect after 5 days by MTT assay; type: functional, organism-based; conditions: Human immunodeficiency virus 1, MT4, 120 h
[7] = tested on: Human immunodeficiency virus 1; assay: Antiviral activity against wild type HIV 1 NL4-3 infected in human MT4 cells assessed as inhibition of virus-induced cytopathic effect after 5 days by MTT assay; type: functional, organism-based; conditions: Human immunodeficiency virus 1, NL4-3, MT4, 120 h
[8] = tested on: Human immunodeficiency virus 1; assay: Resistance index, ratio of EC50 for HIV-1 IRLL98 harboring reverse transcriptase M41L, D67N, Y181C, M184V, R211K, and T215Y mutants to EC50 for wild type HIV-1 NL4-3; type: functional
[9] = tested on: Human immunodeficiency virus 1; assay: Resistance index, ratio of EC50 for HIV-1 harboring reverse transcriptase K103N mutant to EC50 for wild type HIV-1 NL4-3; type: functional
[10] = tested on: Human immunodeficiency virus 1; assay: Resistance index, ratio of EC50 for HIV-1 harboring reverse transcriptase K103N/Y181C double mutant to EC50 for wild type HIV-1 NL4-3; type: functional
[11] = tested on: Human immunodeficiency virus 1; assay: Resistance index, ratio of ID50 for recombinant HIV-1 His-tagged reverse transcriptase p66/p51 K103N mutant to ID50 for recombinant wild type HIV-1 reverse transcriptase His-tagged p66/p51
[12] = tested on: Human immunodeficiency virus 1; assay: Antiviral activity against HIV-1 IRLL98 harboring reverse transcriptase M41L, D67N, Y181C, M184V, R211K, and T215Y mutants infected in human MT4 cells assessed as inhibition of virus-induced cytopathic effect after 5 days by MTT assay; type: functional, organism-based; conditions: Human immunodeficiency virus 1, IRLL98, MT4, 120 h
[13] = tested on: Human immunodeficiency virus 1; assay: Antiviral activity against HIV 1 harboring reverse transcriptase Y181C mutant infected in human MT4 cells assessed as inhibition of virus-induced cytopathic effect after 5 days by MTT assay; type: functional, organism-based; conditions: Human immunodeficiency virus 1, MT4, 120 h
[14] = tested on: Human immunodeficiency virus 1; assay: Antiviral activity against HIV-1 harboring reverse transcriptase K103N mutant infected in human MT4 cells assessed as inhibition of virus-induced cytopathic effect after 5 days by MTT assay; type: functional, organism-based; conditions: Human immunodeficiency virus 1, MT4, 120 h
[15] = Cytotoxicity against human MT4 cells assessed as reduction in cell viability after 5 days by MTT assay; type: cell-based
[16] = tested on: Human immunodeficiency virus 1; assay: Potency index, ratio of EFV EC50 to compound EC50 for HIV-1 harboring reverse transcriptase K103N/Y181C double mutant infected in human MT4 cells; type: functional
[17] = tested on: Human immunodeficiency virus 1; assay: Resistance index, ratio of ID50 for recombinant HIV-1 His-tagged reverse transcriptase p66/p51 Y181I mutant to ID50 for recombinant wild type HIV-1 reverse transcriptase His-tagged p66/p51
[18] = Therapeutic index, ratio of CC50 for human MT4 cells to EC50 for HIV-1 NL4-3 infected in human MT4 cells; type: toxicity, cell-based; conditions: read-out: Ratio CC50/EC50
[19] = target: Human immunodeficiency virus type 1 reverse transcriptase (Human immunodeficiency virus 1) (UniProt Q72547)
Description: Inhibition of recombinant wild type HIV-1 His-tagged reverse transcriptase p66/p51 expressed in Escherichia coli assessed as reduction in [3H]dTTP incorporation using poly(rA)/oligo(dT) as template/primer after 20 mins by scintillation counting analysis

[20] = tested on: Human immunodeficiency virus type 1 reverse transcriptase (Human immunodeficiency virus 1), Q72547 [Y181I]
[21] = tested on: Human immunodeficiency virus 1; assay: Resistance index, ratio of EC50 for HIV-1 harboring reverse transcriptase Y188L mutant to EC50 for wild type HIV-1 NL4-3; type: functional
[22] = tested on: Human immunodeficiency virus 1; assay: Potency index, ratio of TMC120 EC50 to compound EC50 for HIV-1 IRLL98 harboring reverse transcriptase M41L, D67N, Y181C, M184V, R211K, and T215Y mutants infected in human MT4 cells; type: functional
[23] = tested on: Human immunodeficiency virus type 1 reverse transcriptase (Human immunodeficiency virus 1), Q72547 [K103N]
Description: Inhibition of recombinant HIV-1 His-tagged reverse transcriptase p66/p51 K103N mutant expressed in Escherichia coli assessed as reduction in [3H]dTTP incorporation using poly(rA)/oligo(dT) as template/primer after 20 mins by scintillation counting analysis

SMILES: COC(c1nc(SC(C)C)[nH]c(=O)c1C)c1c(F)cccc1Cl (stereo not drawn)
- ID50 [1]: 900 to 950 nM
- Ratio EC50 [2]: 83 - 90
- Ratio EC50 [3]: 2000 - 3000
- Ratio [4]: 190 to 225
- EC50 [5]: 46 nM
- EC50 [6]: 52 to 72 nM
- EC50 [7]: 0.3 to 0.5 nM
- Ratio EC50 [8]: 2
- Ratio EC50 [9]: 16 - 20
- Ratio EC50 [10]: 92
- Ratio [11]: 18 to 20
- EC50 [12]: 1 nM
- EC50 [13]: 25 to 45 nM
- EC50 [14]: 6 to 8 nM
- CC50 at 120 h [15]: > 70000 nM
- Ratio EC50 [16]: 5 - 15
- Ratio [17]: 320 to 375
- selectivity ratio [18]: 140000 to 233000
- ID50 [19]: 4 to 5 nM
- ID50 [20]: 1500 to 1600 nM
- Ratio EC50 [21]: 144 - 173
- Ratio EC50 [22]: 3 - 10
- ID50 [23]: 81 to 89 nM
